Laboratory results from PMC8887546, “Design and Synthesis of Brain Penetrant Glycopeptide Analogues of PACAP With Neuroprotective Potential for Traumatic Brain Injury and Parkinsonism” (Frontiers in drug discovery, 2022).

How the values were obtained:
Format in all cases: in vivo, mouse
[1] = tested on: C57BL/6 mice, diffuse TBI; test: Neurological severity score after TBI; conditions: 10 mg/kg i.p. 30 min prior to TBI, 2, 5 and 7 DPI
Method: (§1) 30 min prior to TBI or sham injury, mice were randomly assigned to a therapeutic group and received an intraperitoneal injection of 2LS80Mel (10 mg/kg) or sterile saline (0.25 ml). Groups were as follows: TBI-2LS80Mel n = 17; TBI-vehicle n = 17; sham n = 22 (vehicle n = 11, 2LS80Mel n = 11).
(§2) For injury induction 24 h post-surgery, mice were re-anesthetized with 5% isoflurane delivered for 3 min. The cap was removed from the injury-hub assembly and the dura was visually inspected through the hub to ensure it was intact with no debris. […] Injured mice were monitored for presence of a forearm fencing response and righting reflex times were recorded as indicators of injury severity ([Hosseini and Lifshitz, 2009]). […] After spontaneously righting, mice were placed in a heated recovery cage and monitored until they were ambulatory (approximately 5–15 min) before being returned to their piezoelectric sleep cage (see below). […]
Neurological impairments were assessed at 2, 5, and 7 DPI using an 8-point NSS paradigm adapted from those previously used in experimental models of TBI and previously reported by our lab ([Chen et al., 1996]; [Semple et al., 2010]; [Pleasant et al., 2011]; [Ziebell et al., 2011]; [Rowe et al., 2018]; [Rowe et al., 2019]). […]

[2] = tested on: C57BL/6 mice, diffuse TBI; test: Flow cytometry analysis of blood after TBI; conditions: 10 mg/kg i.p. 30 min prior to TBI
Method: as §1
For injury induction 24 h post-surgery, mice were re-anesthetized with 5% isoflurane delivered for 3 min. The cap was removed from the injury-hub assembly and the dura was visually inspected through the hub to ensure it was intact with no debris. The hub was then filled with normal saline and attached to an extension tube connected to the male end of the fluid percussion device (Custom Design and Fabrication, Virginia Commonwealth University, Richmond, VA). An injury of moderate severity for our injury model (1.4 atm) was administered by releasing the pendulum onto the fluid-filled cylinder following the return of a toe-pinch response. Sham mice underwent the same procedure except the pendulum was not released. Injured mice were monitored for presence of a forearm fencing response and righting reflex times were recorded as indicators of injury severity ([Hosseini and Lifshitz, 2009]). The righting reflex time is the total time from the initial impact until the mouse spontaneously rights itself from a supine position. The fencing response is a tonic posturing characterized by extension and flexion of opposite arms that has been validated as an overt indicator of injury severity ([Hosseini and Lifshitz, 2009]). The injury hub was removed, and the brain was inspected for uniform herniation and integrity of the dura. The incision was cleaned with saline and closed using sutures. Moderately brain-injured mice had righting reflex recovery times greater than 4 min and a positive fencing response. […] After spontaneously righting, mice were placed in a heated recovery cage and monitored until they were ambulatory (approximately 5–15 min) before being returned to their piezoelectric sleep cage (see below). […]

[3] = tested on: C57BL/6 mice, diffuse TBI; test: Novel object recognition after TBI; conditions: 10 mg/kg i.p. 30 min prior to TBI, 14 DPI
Method: as §1, §2
Cognitive impairment was tested at 14 DPI using the novel object recognition (NOR) test as previously published ([Rowe et al., 2014b]; [Harrison et al., 2015]; [Saber et al., 2021]). […] For testing, the times spent actively investigating the novel and familiar object were quantified. […] If an animal climbed onto an object and sniffed into the air, this time was not calculated into the exploration of the novel object.

For CC[C@H](C)[C@H](NC(=O)CNC(=O)[C@H](CC(=O)O)NC(=O)[C@H](CO)NC(=O)[C@@H](N)Cc1c[nH]cn1)C(=O)N[C@@H](Cc1ccccc1)C(=O)N[C@H](C(=O)N[C@@H](CC(=O)O)C(=O)N[C@@H](CO)C(=O)N[C@@H](Cc1ccc(O)cc1)C(=O)N[C@@H](CO)C(=O)N[C@@H](CCCNC(=N)N)C(=O)N[C@@H](Cc1ccc(O)cc1)C(=O)N[C@@H](CCCNC(=N)N)C(=O)N[C@@H](CCCCN)C(=O)N[C@@H](CCC(N)=O)C(=O)N[C@@H](CC(C)C)C(=O)N[C@@H](C)C(=O)N[C@H](C(=O)N[C@@H](CCCCN)C(=O)N[C@@H](CCCCN)C(=O)N[C@@H](Cc1ccc(O)cc1)C(=O)N[C@@H](CC(C)C)C(=O)N[C@@H](C)C(=O)N[C@@H](C)C(=O)N[C@H](C(=O)N[C@@H](CC(C)C)C(=O)N[C@@H](CO[C@@H]1O[C@H](CO[C@H]2O[C@H](CO)[C@H](O)[C@H](O)[C@H]2O)[C@@H](O)[C@H](O)[C@H]1O)C(N)=O)C(C)C)C(C)C)[C@@H](C)O [Compound 2LS80Mel], the “Neurological severity score (sensorimotor deficits)” value [1] was “deficits were prevented”, the “CD11b+CD115+Ly6Chigh monocyte population in blood” value [2] was “increase was not seen” and the “CD11b+Ly6Chigh monocyte population in blood” value [2] was “increase was not seen”. For the same molecule, the “Neutrophil populations in blood” value [2] was “no differences” and the “Novel object recognition (cognitive deficits)” value [3] was “no TBI-induced cognitive deficits among any group”.
